Laboratory results published in patent publication US20050250726A1, “Immunostimulatory nucleic acid for treatment of non-allergic inflammatory diseases” (University of Iowa Research Foundation, priority 2001, published 2005).
Strand notation (5' to 3'): a small letter for the sugar, then the base; units joined by * are phosphorothioate-linked, units joined directly phosphodiester-linked; [ ] holds rarer units or linkages, { } end groups; capitals alone tell only the bases. d = 2'-deoxy (DNA)

Columns and labels:
YAC-1 target cells = test: NK cytotoxicity assay, 4-h 51Cr-release against YAC-1 target cells; type: cell-based, mouse; conditions: for NK activity, Mouse Spleen Cells (LU/10^6): B cell-depleted C57BL/6 spleen cells, 18 h, IL-2 100 U/mL, ODN 1585 5 μg/mL, SC-58236 0.25 μg/mL, PGE2 0.1 μg/mL, 1 LU = 30% 51Cr release; for effect on NK lytic activity induced by CpG DNA: B cell-depleted murine spleen cells stimulated with ODN 1585
Protocol: Cytotoxicity assay. Spleen cells from C57BL/6 mice were depleted of B cells using paramagnetic beads coated with goat anti-mouse Ig as previously described. Ballas Z K et al. (1990) J Immunol 145:1039-45; Ballas Z K et al. (1993) J Immunol 150:17-30. […] […] Cultures were harvested at 18 h and the cells were used as effectors in a standard 4-h ^51Cr-release assay against YAC-1 target cells labeled with Na^51CrO4 (Amersham Life Science, Arlington Heights, Ill.) as described previously. Ballas Z K et al. (1990) J Immunol 145:1039-45; Ballas Z K et al. (1993) J Immunol 150:17-30; Ballas Z K et al. (1990) J Allergy Clin Immunol 85:453-39. One lytic unit (LU) was defined as the number of the cells needed to exert 30% specific lysis.
It has previously been reported that certain CpG DNA sequences can elicit strong lytic activity in NK cells (Ballas Z K et al. (1996) J Immunol 157:1840-45), whereas exogenous PGE2 is known to inhibit the activity of NK cell killing (Kanar M C et al. (1988) J Clin Immunol 8:69-79; Young M R et al. (1986) J Natl Cancer Inst 77:425-29). B cell-depleted murine spleen cells were stimulated with the stimulatory ODN 1585 in the presence or absence of a COX inhibitor.

[1] = tested on: BALB/c mouse spleen cells; test: IFN-γ secretion from CpG DNA-stimulated spleen cells (ELISA); type: cell-based; conditions: for IFN-γ: BALB/c spleen cells preincubated 30 min with SC-58236 0.125 μM, PGE2 0.1 μM, 2B5 or control antibody 6.7 μg/mL, then CpG ODN 1826 0.3 μg/mL for 24 h, supernatant ELISA
Protocol: Cell culture conditions. RAW 264.7 cells and murine spleen cells were cultured in RPMI 1640 supplemented with 10% FCS, 2 mM L-glutamine, 0.05 mM 2-mercaptoethanol, penicillin (100 U/ml) and streptomycin (100 U/ml) in 12-well tissue culture plates (Costar, Corning, N.Y.). Cells were incubated in media alone or media supplemented with ODN. Supernatants from triplicate cultures were harvested and stored at −70° C. before analysis for PG or cytokine concentration. Cells were subsequently harvested for either RNA or protein isolation. In some cultures, ODN-stimulated spleen cells were incubated in the presence of PGE2 (0.1 μM), piroxicam (16 μM), SC-58236 (0.125 μM), anti-PGE2 antibody 2B5 (6.7 μg/ml), or isotype antibody MOPC21 (6.7 μg/ml). For quantitative analysis of macrophage PG production, RAW 264.4 cells were cultured at 1×10^5 cells/ml in media or media with ODN (3 μg/ml). After 24 h of culture the supernatant was removed and cells were incubated in PBS supplemented with arachidonic acid (10 μM).
Cytokine quantification. IFN-γ detection was performed using a cytokine ELISA kit from PharMingen (San Diego, Calif.). Immulon-1B microtiter plates were obtained from Dynatech (Chantilly, Calif.). After incubation with peroxidase substrate (tetramethylbenzidine) the plates were read at 650 nm on a microplate reader (Cambridge Technology, Watertown, Mass.).
COX inhibitors enhance IFN-γ secretion induced by CpG DNA. CpG DNA is known to elicit strong Th1-like immune responses both in vitro and in vivo. Klinman D M et al. (1996) Proc Natl Acad Sci USA 93:2879-83. In contrast, PGE2, which is induced by CpG DNA, can inhibit Th1 responses. Betz M et al. (1991) J Immunol 146:108-13. Murine spleen cells were stimulated with CpG DNA in the presence of piroxicam, a non-selective COX inhibitor, or SC-58236, a selective inhibitor of COX-2, and quantified IFN-γ production. […] Neither COX inhibitor alone stimulated IFN-γ secretion.
Inhibition of PGE2 synthesis plays an important role in enhancing IFN-γ secretion. The blockade of the COX enzyme will inhibit synthesis of multiple PG (e.g., PGE2, PGD2 and dPGJ2), all of which potentially can inhibit Th1 immune responses. To assess the role of PGE2 in the modulation of IFN-γ secretion elicited by CpG ODN, a neutralizing antibody (2B5) specific for PGE2 was added into CpG DNA-stimulated spleen cell-cultures. […] The enhancement was similar in magnitude to that observed when COX inhibitors were added to the cultures (Table 3).

BALB/c mice = test: Serum IFN-γ in vivo after COX inhibitor and ODN 1826 injection; parameters: species or system mouse; conditions: SC-58236 20 mg/kg i.p. 1 h before 30 μg ODN 1826, serum 5 h post ODN, FIG. 3
Protocol: In vivo experiments. BALB/c mice were injected i.p. with 0.2 ml of diluent or SC-58236 (20 mg/kg). One hour later, mice were injected with 30 μg of ODN 1826 or PBS. Five hours later, the mice were anaesthetized with Avertin (Aldrich, Milwaukee, Wis.) and blood was obtained from the retro-orbital plexus. The blood was allowed to clot on ice for 1 h and centrifuged at 10,000 r.p.m. for 10 min. The serum was used for IFN-γ determination by ELISA (as described above).
COX inhibitors augment IFN-γ production in vivo. To determine whether COX inhibitors could also enhance the immune stimulatory effects of CpG-DNA in vivo, mice were treated with COX inhibitors (piroxicam or SC-58236) and subsequently injected with stimulatory ODN 1826. Serum IFN-γ levels were quantified 5 h post ODN injection.

COX-2 mRNA = test: RNase protection assay for COX-2 mRNA in RAW 264.7 macrophages; type: cell-based, murine; conditions: ODN 3 μg/ml; for increase in COX-2 mRNA: 0-24 h
Protocol: RNase protection assay. A murine COX-2 cDNA fragment (nucleotides 205-505; GenBank accession no. M88242) was synthesized by RT-PCR using mouse brain RNA as a template and cloned into pGEM-4. Fragments of the RPL32-4A gene were also cloned into pGEM-4. Dudov K P et al. (1984) Cell 37:457-68. L32 served as an internal loading control. RNase protection assay (RPA) for the detection of COX-2 was performed as previously described. Stadler A et al. (1998) In: Neurodegeneration Methods and Protocols, Harry J and Tilson H A, eds., Humana Press, Totowa, N.J., p. 53. Briefly, for the synthesis of a ^32P-radiolabeled anti-sense RNA probe, equimolar mixtures of the linearized COX-2 and L32 templates were used. Hybridization reactions were performed overnight at 56° C. Following RNase digestion, the RNA duplexes were isolated by electrophoresis in a standard 7.5% acrylamide/12 M urea/0.5% TBE sequencing gel. Dried gels were placed on BMR filmhand were exposed at −70° C.
Films and photographs of RPA or Western blots were scanned in at 6000 DPI using an Epson Expression 1600 scanner. Densitometric analysis was performed using Vtrace (developed at the University of Iowa Image Analysis Facility) operating on a SGI O2 Workstation. Average and integrated OD measurements were made on user-selected regions. A Kodak photographic step tablet was used to calibrate optical density.
Immunostimulatory ODN induce COX-2 mRNA. RAW 264.7 macrophages were incubated with media or ODN (3 μg/ml) for varying time periods (0, 2, 4, 6 and 24 h) and RNA isolated for COX-2 expression using RPA.

COX-2 protein = test: Western blotting of COX-2 protein in RAW 264.7 cells; type: cell-based, murine
Protocol: Western blotting. Protein was isolated from cultured cells by resuspending in lysis buffer [50 mM Tris (hydroxymethyl) aminomethane, pH 7.5, 150 mM NaCl, 100 μg/ml PMSF, 1 μg/ml aprotinin, 1 μg/ml leupeptin, 1 mM diethyldithiocarbamic acid, 1% NP-40 and 1% sodium deoxycholate]. Cells were lysed by sonication (20 s, 4° C.). Debris was eliminated by centrifugation (15 min, 1000 g). Protein concentration was measured using a commercial reagent based on BCA staining (Pierce, Rockford, Ill.), using BSA as an internal standard. Equal amounts of cellular protein were loaded onto a 10% polyacrylamide gel and separated by electrophoresis (200 V for 45 min). Proteins were then transferred to nitrocellulose (100 V for 1 h) and the membrane was blocked with 5% non-fat dry milk. The nitrocellulose was then incubated with a rabbit polyclonal primary antibody (anti-COX-2, 1:1000, Cayman; anti-COX-1, 1:1000, Santa Cruz) overnight at 4° C. Antibody labeling was detected using enhanced chemiluminescence (ECL; Amersham) as per the manufacturer's instructions. Specificity of the anti-cyclooxygenase antibody was confirmed with the use of ram seminal vesicle PGHS-1 (COX-1, Oxford Biomedical Research, Oxford, Mich.) and sheep placenta PGHS-2 (COX-2, Cayman).
Films and photographs of RPA or Western blots were scanned in at 6000 DPI using an Epson Expression 1600 scanner. […]

Molecule	NK activity, Mouse Spleen Cells (LU/10^6) (YAC-1 target cells)	effect on NK lytic activity induced by CpG DNA (YAC-1 target cells)	IFN-γ [1] [pg/mL]	increase in COX-2 mRNA (COX-2 mRNA)	COX-2 protein induction (COX-2 protein)	also measured
NS(=O)(=O)c1ccc(-n2nc(C(F)(F)F)cc2-c2ccc(Cl)cc2)cc1 [SC-58236]	0.0	enhanced the NK activity	0 ± 2			enhancement of IFN-γ secretion from CpG DNA-stimulated spleen cells ([1]; inhibitor added to CpG DNA-stimulated murine spleen cells): 2 fold; increase in serum IFN-γ above mice injected with ODN 1826 alone (BALB/c mice): 4.6 fold
ggGGTCAACGTTGAgggggG (dG*dG*dGdGdTdCdAdAdCdGdTdTdGdAdG*dG*dG*dG*dG*dG) [ODN 1585, immunostimulatory CpG ODN]	7.3					
ODN 1826			1960 ± 247	effectively increased COX-2 mRNA	marked induction	COX-2 mRNA levels over the 24-h time period (COX-2 mRNA): remained elevated; time to induction of COX-2 mRNA expression (COX-2 mRNA): ≤ 2 h; COX-2 mRNA, 6 h level fold greater than 0 h (COX-2 mRNA; 6 h): 21 fold
ODN 1982: non-stimulatory control ODN (dT*dC*dC*dA*dG*dG*dA*dC*dT*dT*dC*dT*dC*dT*dC*dA*dG*dG*dT*dT)				no significant increase	no induction	
CCCCC[C@H](O)/C=C/[C@H]1[C@H](O)CC(=O)[C@@H]1C/C=C\CCCC(=O)O [PGE2, prostaglandin E2]	0.0	abolished the lytic activity	0 ± 4			
